From patent publication US5622933A, “Multiple branch peptide constructions for use against HIV” (priority 1993, dated 1997)
“And” between values parts separate entries of the source, which are not always exact repeats. Identical values can stand only once. Like-named read-outs stand apart in the source and are kept apart here. Ends that are not written are not given here.

Legend:
HIV-1Lai = assay: Syncytia formation blockage (chronically infected cells + uninfected Molt-4 cells); assay type: cell-based; design: key: -: The presence of syncytia is indicated by + signs, allocated in approximate proportion to the quantities counted; The presence of syncytia is indicated by + signs, allocated in approximate proportion to the quantities counted; ++: The presence of syncytia is indicated by + signs, allocated in approximate proportion to the quantities counted; +++: The presence of syncytia is indicated by + signs, allocated in approximate proportion to the quantities counted; ++++: The presence of syncytia is indicated by + signs, allocated in approximate proportion to the quantities counted
Procedure: (§1) CEM or C8166 cells were chronically infected with HIV-1 Lai or HIV-2 Rod, or HIV-1MN, respectively. Infected cells (1×10^4) were incubated for 2 hours with various concentrations of MBPCs in 96-well plates. Uninfected Molt-4 cells (4×10^4) were then added in […]. Syncytia were counted after 18 hours at 37° C.

HIV-1MN = assay: as above; assay type: cell-based; design: key: -: The presence of syncytia is indicated by + signs, allocated in approximate proportion to the quantities counted; The presence of syncytia is indicated by + signs, allocated in approximate proportion to the quantities counted; ++: The presence of syncytia is indicated by + signs, allocated in approximate proportion to the quantities counted; +++: The presence of syncytia is indicated by + signs, allocated in approximate proportion to the quantities counted; ++++: The presence of syncytia is indicated by + signs, allocated in approximate proportion to the quantities counted
Procedure: as §1

HIV-2Rod = assay: as above; assay type: cell-based; design: key: -: The presence of syncytia is indicated by + signs, allocated in approximate proportion to the quantities counted; The presence of syncytia is indicated by + signs, allocated in approximate proportion to the quantities counted; ++: The presence of syncytia is indicated by + signs, allocated in approximate proportion to the quantities counted; +++: The presence of syncytia is indicated by + signs, allocated in approximate proportion to the quantities counted; ++++: The presence of syncytia is indicated by + signs, allocated in approximate proportion to the quantities counted
Procedure: as §1

New Zealand rabbits = assay: Immunogenicity in rabbits (serum ELISA for anti MBPC.3 antibodies); assay type: in vivo, rabbit; conditions: coat GPGRAF monomer 10 μg/ml
Procedure: […] This procedure was repeated subcutaneously with incomplete Freud's adjuvant on days 30, 60, 90 and 120. Sera were tested by ELISA, looking for specific anti MBPC.3 antibodies. Data presented here is from the last serum samples (120+7 days).
(§2) […] After saturation with 400 μL of casein (5 g/100 ml), different serum dilutions were added for 2 hours at 37° C. The controls were sera from non-immunized rabbits and mice. After rinsing (5×), 50 μl of 1:5000 of peroxidase-labeled swine anti-rabbit IgG or anti-mouse IgG (Dakopatts, Copenhagen, Denmark) were added for 1 hour at 37° C. After further rinsing (5×), 100 μl of ortho-phenylenediamine were added for 30 min in the dark at room temperature. The reaction was stopped by adding 50 μl of 4N sulfuric acid, and optical density (OD) ratios were determined at 492/620 nm.

C57/BL6 black mice = assay: Immunogenicity in mice (serum ELISA for anti-MBPC3 antibody); assay type: in vivo, mouse; conditions: coat GPGRAF monomer 10 μg/ml, listed as Mo
Procedure: The injection route was intraperitoneal. The blood samples were collected by sub-orbital eye punction. The blood samples were left for 1 hour at 37° C., then overnight at 4° C., and the supernatants (serum samples) thus obtained were separated from the pellets. Sera were tested by ELISA, looking for specific anti-MBPC3 antibody.
as §2

HIV-1 (IIIB) = assay type: cell-based; conditions: for number of syncytia (HIV-1 induced cell fusion): 24 hours
Excerpt: 50×10^3 8E5 cells chronically infected with a RT-deficient HIV-I (IIIB) isolate, were co-cultivated with 150×10^3 phytohemagglutinin (PHA) stimulated human peripheral blood lymphocytes (PBLs) in the presence of the indicated peptide in 96-well plates. The MBPCs used are described by the peptides attached, and the number thereof, to a core lysine matrix, which is designated HLC. All amino acids used for this experiment were in dextro form.

HIV-1 (89.6) = assay: Infection of and syncytia formation in human primary macrophages; assay type: cell-based; conditions: 5×10^-5 M; 10,000 TCID50
Procedure: MBPCs were also evaluated for their ability to block the infection of human primary macrophages by a highly cytopathic macrophage-tropic isolate, HIV-1 (89.6). Mononuclear cells were isolated from leukophoresis units enriched for monocytes by Ficoll-Hypaque density separation. Macrophages were purified by adherence to plastic in RPMI 1640 supplemented with 10% fetal calf serum and 5% human AB serum. […] 5×10^5 cells were treated for 45 minutes with the indicated MBPC at concentrations of 5×10^-5 M and subsequently exposed to 10,000 TCID50 of the macrophage-tropic isolate HIV (89.6). […] After thorough washing, the cells were fed again with medium and analyzed for HIV-1 p24^gag production and syncytia formation 4 days post-infection.

8E5 cells = assay: Toxicity in the cell fusion test (MTT assay or trypan blue exclusion); assay type: cell-based; conditions: 5 × 10^-5 M

(IGPGRAF)4 -(K)2 -K-βA-OH (also: four copies on lysine core (K)2-K-βA-OH) [MBPC.4]
Syncytia formation (HIV-1Lai; MBPC Conc. 5 × 10^-6 M): +++ | Syncytia formation (HIV-1Lai; MBPC Conc. 10^-6 M): ++++ | Syncytia formation (HIV-1Lai; MBPC Conc. 10^-7 M): ++++ | Syncytia formation (HIV-1MN; MBPC Conc. 5 × 10^-6 M): ++++ | Syncytia formation (HIV-1MN; MBPC Conc. 10^-6 M): ++++ | Syncytia formation (HIV-1MN; MBPC Conc. 10^-7 M): +++ | Syncytia formation (HIV-2Rod; MBPC Conc. 5 × 10^-6 M): ++++ | Syncytia formation (HIV-2Rod; MBPC Conc. 10^-6 M): ++++ | Syncytia formation (HIV-2Rod; MBPC Conc. 10^-7 M): ++++

GPGRAF [Mono.3, GPGRAF, reference compound]
optical density (OD) ratio 492/620 nm (×10^3) (New Zealand rabbits; plate 1, rabbit serum 10^-2): 2000 | optical density (OD) ratio 492/620 nm (×10^3) (New Zealand rabbits; plate 1, rabbit serum 10^-3): 2000 | optical density (OD) ratio 492/620 nm (×10^3) (New Zealand rabbits; plate 1, rabbit serum 10^-4, listed as Mo): 677 and 725 | optical density (OD) ratio 492/620 nm (×10^3) (New Zealand rabbits; plate 2, rabbit serum 10^-2): 2000 | optical density (OD) ratio 492/620 nm (×10^3) (New Zealand rabbits; plate 2, rabbit serum 10^-3, listed as Mo): 2000 and 1909 | optical density (OD) ratio 492/620 nm (×10^3) (New Zealand rabbits; plate 2, rabbit serum 10^-4, listed as Mo): 588 and 625 | optical density (OD) ratio 492/620 nm (×10^3) (New Zealand rabbits; plate 4, rabbit serum 10^-2): 811 | optical density (OD) ratio 492/620 nm (×10^3) (New Zealand rabbits; plate 4, rabbit serum 10^-3, listed as Mo): 245 and 194 | optical density (OD) ratio 492/620 nm (×10^3) (C57/BL6 black mice; plate 1, mouse serum 10^-2): 1224 and 1135 | optical density (OD) ratio 492/620 nm (×10^3) (C57/BL6 black mice; plate 1, mouse serum 10^-3): 310 and 287 | optical density (OD) ratio 492/620 nm (×10^3) (C57/BL6 black mice; plate 1, mouse serum 10^-4): 104 and 185 | optical density (OD) ratio 492/620 nm (×10^3) (C57/BL6 black mice; plate 2, mouse serum 10^-2): 1539 and 1575 | optical density (OD) ratio 492/620 nm (×10^3) (C57/BL6 black mice; plate 2, mouse serum 10^-3): 342 and 335 | optical density (OD) ratio 492/620 nm (×10^3) (C57/BL6 black mice; plate 2, mouse serum 10^-4): 95 and 126 | optical density (OD) ratio 492/620 nm (×10^3) (C57/BL6 black mice; plate 4, mouse serum 10^-2): 1231 and 1317 | optical density (OD) ratio 492/620 nm (×10^3) (C57/BL6 black mice; plate 4, mouse serum 10^-3): 380 and 386 | optical density (OD) ratio 492/620 nm (×10^3) (C57/BL6 black mice; plate 4, mouse serum 10^-4): 123 and 122

RAFVTIGK [RAFVTIGK (SEQ ID NO:6), reference compound]
number of syncytia (HIV-1 induced cell fusion) (HIV-1 (IIIB); 5 × 10^-5 M): - (- indicates the total absence of syncytia in the well) | number of syncytia (HIV-1 induced cell fusion) (HIV-1 (IIIB); 5 × 10^-6 M): +++ | number of syncytia (HIV-1 induced cell fusion) (HIV-1 (IIIB); 5 × 10^-7 M): +++

[Ac-GPGRAF]8 -MLC (also: eight copies on MLC (multibranched lysine core)) [N-terminal acetylation]
inhibition of syncytia formation / cell fusion, in words (HIV-1 (IIIB)): significant loss of activity | number of syncytia (HIV-1 induced cell fusion) (HIV-1 (IIIB); 5 × 10^-5 M): - (- indicates the total absence of syncytia in the well) | number of syncytia (HIV-1 induced cell fusion) (HIV-1 (IIIB); 5 × 10^-6 M): +++ | number of syncytia (HIV-1 induced cell fusion) (HIV-1 (IIIB); 5 × 10^-7 M): +++

[GPG(R)D AF]8 -MLC
inhibition of macrophage infection, in words (HIV-1 (89.6)): significantly less active than [GPGRAF]8 -MLC | number of syncytia (HIV-1 induced cell fusion) (HIV-1 (IIIB); 5 × 10^-6 M): - (- indicates the total absence of syncytia in the well) | number of syncytia (HIV-1 induced cell fusion) (HIV-1 (IIIB); 5 × 10^-7 M): +++

[GPGRAF]8 -MLCD
inhibition of macrophage infection, in words (HIV-1 (89.6)): significantly less active than [GPGRAF]8 -MLC | number of syncytia (HIV-1 induced cell fusion) (HIV-1 (IIIB); 5 × 10^-5 M): +++ | number of syncytia (HIV-1 induced cell fusion) (HIV-1 (IIIB); 5 × 10^-6 M): +++ | number of syncytia (HIV-1 induced cell fusion) (HIV-1 (IIIB); 5 × 10^-7 M): +++

[GPGRA]8 -MLC
inhibition of syncytia formation / cell fusion, in words (HIV-1 (IIIB)): did not inhibit cell fusion | number of syncytia (HIV-1 induced cell fusion) (HIV-1 (IIIB); 5 × 10^-5 M): +++ | number of syncytia (HIV-1 induced cell fusion) (HIV-1 (IIIB); 5 × 10^-6 M): +++ | number of syncytia (HIV-1 induced cell fusion) (HIV-1 (IIIB); 5 × 10^-7 M): +++

[GPGR]8 -MLC
inhibition of syncytia formation / cell fusion, in words (HIV-1 (IIIB)): did not inhibit cell fusion | number of syncytia (HIV-1 induced cell fusion) (HIV-1 (IIIB); 5 × 10^-5 M): +++ | number of syncytia (HIV-1 induced cell fusion) (HIV-1 (IIIB); 5 × 10^-6 M): +++ | number of syncytia (HIV-1 induced cell fusion) (HIV-1 (IIIB); 5 × 10^-7 M): +++

[IGPGRAF]8 -MLC (also: octameric multibranched MLC construct)
inhibition of syncytia formation / cell fusion, in words (HIV-1 (IIIB)): significant loss of activity | number of syncytia (HIV-1 induced cell fusion) (HIV-1 (IIIB); 5 × 10^-5 M): - (- indicates the total absence of syncytia in the well) | number of syncytia (HIV-1 induced cell fusion) (HIV-1 (IIIB); 5 × 10^-6 M): ± | number of syncytia (HIV-1 induced cell fusion) (HIV-1 (IIIB); 5 × 10^-7 M): +++

[RKSIHKGPGRAFYT]4 -MLC (also: tetrameric multibranched MLC construct)
Toxicity (8E5 cells): Toxic | number of syncytia (HIV-1 induced cell fusion) (HIV-1 (IIIB); 5 × 10^-6 M): - (- indicates the total absence of syncytia in the well) | number of syncytia (HIV-1 induced cell fusion) (HIV-1 (IIIB); 5 × 10^-7 M): +++

[RKSIHTGPGRAFYT]4 -MLC (also: tetrameric multibranched MLC construct)
Toxicity (8E5 cells): Toxic | number of syncytia (HIV-1 induced cell fusion) (HIV-1 (IIIB); 5 × 10^-6 M): - (- indicates the total absence of syncytia in the well) | number of syncytia (HIV-1 induced cell fusion) (HIV-1 (IIIB); 5 × 10^-7 M): +++
